Measured values from publication PMC11339798, “Dual inhibitors of Pseudomonas aeruginosa virulence factors LecA and LasB” (Chemical Science, 2024).

What was measured:
LecA [1] = target: T1, LecA (Pseudomonas aeruginosa, UniProt Q05097); test: Competitive binding assay for LecA based on fluorescence polarization; design: species or system P. aeruginosa
T1 construct: made in house; host or cells: E. coli (plasmid pET25-pail)
Protocol: The four thiols 17, 18, 24 and 25 as well as three disulfides 26a, 26b and 27 were then evaluated for their activity against LecA using a competitive binding assay based on fluorescence polarization (Fig. 4B). […]
Expression and purification of LasB and LecA
LecA was expressed recombinantly using E. coli pET25-pail, whereas LasB was isolated from P. aeruginosa PA14 culture supernatant as described previously. 1,2
LecA labeling with fluorescein was performed in analogy to Sommer et al. 3 and Beshr et al.4 To this end fluorescein isothiocyanate (FITC) was freshly dissolved in carbonate-bicarbonate buffer with pH of 9.3 at a concentration of 3 mg mL-1. Subsequently, 66 µL of this FITC solution was combined with 1.4 mL of LecA at a concentration of 60 µM in carbonate-bicarbonate buffer, pH 9.3. The resulting mixture was then incubated at 25 °C with shaking at 500 rpm for 1 hour. Then, extensive washing with PBS/Ca2+ in a 5 kDa molecular weight cutoff centrifugal concentrator was performed to remove excess dye and buffer the labelled protein. […]
Competitive binding assay for LecA
The procedure for the fluorescence polarization-based competitive binding assay for LecA was performed as reported by Joachim et al. with modifications. 1 The assay was performed in TBS/Ca2+ buffer (20 mM Tris, 137 mM NaCl, 2.6 mM KCl at pH 7.4 supplemented with 1 mM CaCl 2 and contained 5% DMSO). The final protein concentration in the assay was 5 µM for LecA. Fluorescence intensities were recorded on a PheraStar FS plate reader (BMG Labtech GmbH, Germany) and polarization was calculated using MARS Data Analysis (BMG Labtech).
IC50 values were obtained from a four-parameter curve-fitting procedure. Averages and standard deviations were calculated from at least three independent experiments of technical

LecA [2] = target: T1, LecA; test: Surface plasmon resonance direct LecA binding assay (immobilized LecA); design: species or system P. aeruginosa
Source text: Therefore, we measured the LecA affinity of thiol derivatives 17, 18, 24 and 25 and disulfides 26a, 26b and 27 using surface plasmon resonance (SPR) with LecA covalently immobilized on a sensor chip via amide coupling (Fig. 5 and Table 1). […] Thiols 17, 18, 24 and 25 reached equilibrium binding within 60 s of interaction with immobilized LecA, followed by their dissociation with moderate off-rates. […] Due to the very small off-rates for 26a, 26b and 27, these values have been calculated based on the response at […] of the injected compound and monitoring their dissociation for 30 min (Fig. S2 ^†). The observed very tight binding to immobilized LecA required optimization of the protein surface regeneration procedure. Effective conditions were identified as one injection of 50 mm isopropyl β-D-thiogalactoside in the running buffer, followed by one injection of 20 mm EDTA disodium salt in water. The regenerated chip surface was controlled using an injection of 1 to ensure that the activity of LecA was maintained.
Surface plasmon resonance direct LecA binding assay
SPR experiments were performed on a Reichert 2-channel SPR SR7500DC (Reichert Technologies Life Sciences, Buffalo, NY, USA) at 25 °C. For LecA immobilization, the surface of a HC1000M sensor chip (XanTec bioanalytics GmbH, Düsseldorf, Germany) was preequilibrated with borate buffer (1 M NaCl, 0.1 M sodium borate pH 9.0), followed by activation of the polycarboxylate hydrogel with 0.2 M N-hydroxysuccinimide (NHS) and 0.4 M 1-ethyl-3-(3-dimethylaminopropyl)carbodiimide hydrochloride (EDC‧HCl) in MilliQ water in both channels for 240 s (flow rate 10 μL/min) until the binding response reached 1200 RU.
Then, LecA (100 μg/mL) in 10 mM sodium acetate pH 3.6 was injected on the activated chip surface of one channel (injection time 420 s, flow rate 10 μL/min) and 6000 RU of LecA were immobilized. Unreacted NHS esters in both channels were blocked with 1 M ethanolamine hydrochloride in MilliQ water pH 8.5 (injection time 360 s, flow rate 10 μL/min).
Test compound stock solutions were prepared in DMSO (20 mM stocks for monovalent LecA inhibitors, 20 µM stocks for divalent LecA inhibitors) and were subsequently diluted in 10 mM phosphate buffer (pH 7.4, 2.7 mM KCl, 137 mM NaCl, 100 μM CaCl2) to obtain solutions with […]
Monovalent inhibitors 17, 18, 24 and 25 were injected for 120 s (flow rate 50 μL/min) at concentrations ranging from 0.39–100 µM. Divalent inhibitors 26a, 26b and 27 were injected for 120 s (flow rate 50 μL/min) at concentrations 50–350 nM. The chip surface was regenerated after each inhibitor injection by one injection of 50 mM IPTG in running buffer (10 mM phosphate buffer, pH 7.4, 2.7 mM KCl, 137 mM NaCl, 100 μM CaCl2, 2% DMSO) followed by one injection 20 mM EDTA disodium salt in MilliQ water, and then followed by three injections of the running buffer (injection time 120 s, flow rate 50 μL/min). 100 µM pNP-Gal (1) in running buffer was injected before each analyte to monitor and ensure chip regeneration and […]
Affinity/equilibrium analysis was performed for 1 on the same chip. A stock solution of 1 (10 mM in PBS/CaCl2 buffer) was prepared, then diluted to the required concentrations in running buffer and injected at 1.56–400 µM (injection time 60 s, flow rate 50 μL/min) without regeneration steps. Data analysis was performed using TraceDrawer software (Ridgeview Instruments) using a 1:1 binding model to fit the experimental data. Spikes at the end of the injections were removed in TraceDrawer during the data analysis.

Kinetic solubility = format: physicochemical; settings: aqueous buffer, kinetic from dmso stock; 10 mm PBS with 2% DMSO at 37 °C

T1 sequence (Q05097 whole entry): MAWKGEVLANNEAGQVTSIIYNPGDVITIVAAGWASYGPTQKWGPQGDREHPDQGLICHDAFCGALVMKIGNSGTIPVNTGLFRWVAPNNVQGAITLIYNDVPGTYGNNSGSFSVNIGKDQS

Compound: CC(C)CC(SSC(CC(C)C)C(=O)Nc1ccc(S[C@@H]2O[C@H](CO)[C@H](O)[C@H](O)[C@H]2O)cc1)C(=O)Nc1ccc(S[C@@H]2O[C@H](CO)[C@H](O)[C@H](O)[C@H]2O)cc1 (some centres unmarked) [Compound 27]
- IC50 (LecA [1]): 5.7 µM
- Kd (LecA [2]): 0.0045 ± 0.0004 µM
- k a (LecA [2]; SPR, immobilized LecA): 5.2 ± 0.6 ×10^4 M^−1 s^−1
- k d (LecA [2]; SPR, immobilized LecA): 2.2 ± 0.3 ×10^−4 s^−1
- solubility kinetic (Kinetic solubility): > 600 µM
